Source: patent US20200306210A1 (ZOGENIX INTERNATIONAL LIMITED, priority 2017, published 2020)

How the values were obtained:
[1] = system: subjects with Dravet syndrome; assay: Study 1503: open-label long-term extension, CGI-I at baseline and final visit; format: in vivo, Human; details: OLE Final Visit
Experimental: Study 1503 was an open-label, long-term safety study of ZX008 in subjects with Dravet syndrome who successfully completed 14 weeks of treatment in 1501, 1502, or 1504 Cohorts 1 and 2. […] CGI-S(baseline scores) were determined at entry into 1503 (i.e., after completing a blinded 16 week trial) and then again at each patient's final visit. FIGS. 7 and 8, and Tables 3 and 4 present numbers of patients having each of the 7 ratings and statistical calculations of improvements.
(§1) The CGI scale measures the change in the subject's clinical status from a specific point in time, i.e., the Baseline Period (and also referred to as the CGI-S, an initial ranking of severity). The CGI rating scale permits a global evaluation of the subject's improvement over time.

[2] = system: children and young adults with Dravet syndrome; assay: Study 1: Clinical Global Impression of Improvement (CGI-I); format: in vivo, Human; details: either 0.2 or 0.8 mg/kg/day dose
Experimental: CGI-S and CGI-I ratings were made by clinical investigators and parent/caregivers in a series of phase III trials of fenfluramine. CGI changes were measured in two randomized, controlled trials with results reported herein. Study 1 was conducted as described in Example 1 and CGI ratings were made according to a set schedule of visits made to the clinic. Tables of results and bar graphs of the statistical analyses of CGI ratings for Study 1 at visit twelve (day 113) are provided in FIGS. 1-4. […] Similar results were obtained with investigator CGI-I rating.
In Study 1, subjects were assessed using Clinical Global Impression (CGI), allowing the parent/caregiver and principal investigator to assess improvement, as well as the Quality of Life in Childhood Epilepsy (QOLCE) Scale and the Pediatric Quality of Life Inventory (PedsQL) to measure changes in the quality of life of the subject. Comparisons between treatment groups were made using Wilcoxon rank sum tests.
as §1

Dravet syndrome patients [3] = details: cited from earlier work
Dravet syndrome patients [4] = details: Dravet syndrome (Devinsky, NEJM 2017); cited from earlier work
[5] = biological target: serotonin 5-HT2A receptor (Homo sapiens, UniProt P28223); details: cited from earlier work
Sequence of serotonin 5-HT2A receptor (P28223 whole entry): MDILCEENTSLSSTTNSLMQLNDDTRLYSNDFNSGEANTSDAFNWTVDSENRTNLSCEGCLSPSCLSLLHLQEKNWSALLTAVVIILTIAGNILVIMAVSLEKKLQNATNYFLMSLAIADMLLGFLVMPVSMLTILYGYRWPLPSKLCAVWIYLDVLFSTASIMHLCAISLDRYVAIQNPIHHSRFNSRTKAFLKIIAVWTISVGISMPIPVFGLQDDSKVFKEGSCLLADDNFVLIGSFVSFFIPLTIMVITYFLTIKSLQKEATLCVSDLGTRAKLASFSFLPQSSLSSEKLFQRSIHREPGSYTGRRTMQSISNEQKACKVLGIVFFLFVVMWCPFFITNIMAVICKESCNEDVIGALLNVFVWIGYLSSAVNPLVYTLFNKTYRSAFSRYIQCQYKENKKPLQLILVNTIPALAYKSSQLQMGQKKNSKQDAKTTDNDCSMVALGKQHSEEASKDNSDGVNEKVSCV

[6] = biological target: T1, serotonin 5-HT2C receptor (Homo sapiens, UniProt P28335); details: cited from earlier work
T1 sequence (P28335 33-458): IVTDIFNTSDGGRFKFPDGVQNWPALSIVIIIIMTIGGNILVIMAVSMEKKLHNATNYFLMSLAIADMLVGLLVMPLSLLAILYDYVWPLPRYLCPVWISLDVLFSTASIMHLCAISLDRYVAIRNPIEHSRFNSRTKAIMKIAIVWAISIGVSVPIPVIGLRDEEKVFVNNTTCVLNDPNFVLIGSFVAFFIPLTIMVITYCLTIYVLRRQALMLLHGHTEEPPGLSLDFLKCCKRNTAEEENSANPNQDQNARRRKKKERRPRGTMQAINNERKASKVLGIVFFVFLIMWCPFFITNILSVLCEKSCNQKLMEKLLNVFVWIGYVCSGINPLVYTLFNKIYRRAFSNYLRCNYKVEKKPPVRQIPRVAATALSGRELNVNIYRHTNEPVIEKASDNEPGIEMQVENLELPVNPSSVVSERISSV

[7] = biological target: serotonin 5-HT2B receptor (Homo sapiens, UniProt P41595); details: cited from earlier work
Sequence of serotonin 5-HT2B receptor (P41595 whole entry): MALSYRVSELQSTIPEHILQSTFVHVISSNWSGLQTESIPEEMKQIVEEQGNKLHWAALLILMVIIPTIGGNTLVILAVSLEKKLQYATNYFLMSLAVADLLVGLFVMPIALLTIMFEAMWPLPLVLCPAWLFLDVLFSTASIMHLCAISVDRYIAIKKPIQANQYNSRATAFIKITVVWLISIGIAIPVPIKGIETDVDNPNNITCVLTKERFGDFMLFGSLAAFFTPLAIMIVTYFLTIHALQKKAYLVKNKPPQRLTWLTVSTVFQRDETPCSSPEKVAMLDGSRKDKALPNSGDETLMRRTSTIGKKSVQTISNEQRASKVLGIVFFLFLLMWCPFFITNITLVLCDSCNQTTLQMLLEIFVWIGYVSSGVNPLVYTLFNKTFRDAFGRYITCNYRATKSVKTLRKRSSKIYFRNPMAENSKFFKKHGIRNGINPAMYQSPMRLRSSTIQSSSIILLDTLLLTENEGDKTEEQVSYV

SMILES: CCNC(C)Cc1cccc(C(F)(F)F)c1 (racemic) [fenfluramine, (RS)—N-ethyl-1-[3-(trifluoromethyl)phenyl]propan-2-amine, reference compound]
- CGI-I investigator, Improved (1, 2, 3), % [1]: 85.4%
- CGI-I investigator, Much/very much improved (1, 2), % [1]: 64.2%
- CGI-I parent/caregiver, Improved (1, 2, 3), % [1]: 82.3%
- CGI-I parent/caregiver, Much/very much improved (1, 2), % [1]: 62.5%
- Parents/caregivers rating their children 'very much improved' or 'much improved' (CGI-I) vs placebo group [2]: Significantly more

SMILES: CC(C)(C)C(O)/C=C/c1ccc2c(c1)OCO2 (stereo not shown) [Stiripentol, stiripentol]
- Reduction of tonic-clonic seizure rate (Dravet syndrome patients [3]): 70%

SMILES: C=C(C)[C@@H]1CCC(C)=C[C@H]1c1c(O)cc(CCCCC)cc1O [cannabidiol]
- Cognitive function, active treatment groups vs placebo (Dravet syndrome patients [4]): did not achieve significant difference from placebo

SMILES: CC(N)Cc1cccc(C(F)(F)F)c1 (stereo not shown) [norfenfluramine]
- Binds to and activates serotonin 5-HT2A receptor, affinity [5]: moderate affinity
- Binds to and activates serotonin 5-HT2C receptor, affinity [6]: high affinity
- Binds to and activates serotonin 5-HT2B receptor, affinity [7]: high affinity
